Assay results from patent US10123533B2, “Nitrogen containing surfactants for agricultural use” (AKZO NOBEL CHEMICALS INTERNATIONAL B.V., priority 2009, dated 2018).

Legend:
[1] = system: morning glory (IPOHE) and winter wheat (TRZAW); test: Example 2 green house trial of concentrated glyphosate samples, % control at 28 DAT; assay type: in vivo; details: glyphosate:surfactant 13:1, 489 and 978 g ae/ha, vs glyphosate alone
Procedure: The concentrated glyphosate samples were diluted to two glyphosate rates and sprayed in a green house so that the final glyphosate rates of the spray solutions were 489 and 978 g ae/H. Three samples at two rates equals six treatments that were sprayed on each of two species, morning glory (IPOHE, a broad leaf week) and winter wheat (TRZAW, a narrow leaf grass). Two rates were employed, 978 g ae/H, and 16-30 at 489 g ae/ha.
Higher ratio means lower surfactant concentration. A ratio of 13:1 means the sample, at the same glyphosate concentration, has 4.3 times less surfactant than a sample with a ratio of 3:1.
Sample A (glyphosate with added tallowamine-15EO) served as a positive control. Sample B containing only glyphosate without added surfactant served as a negative control.
FIGS. 7-8 illustrates the % control results at 28 DAT.

[2] = Solubility tests of prior art betaines in concentrated glyphosate salt solutions; assay type: physicochemical
From the text: WO2000038523 (Huntsman, U.S. Pat. No. 6,500,784, U.S. Pat. No. 6,653,257, EP1139761) discloses an amphoteric surfactant with the structure RCONH(CH2)nN^+R^12CH2COO^− where R^1 is alkyl or hydroxyl alkyl group with C1 to C4 and n=2-4, and discloses a betaine with the structure R R^12N^+CH2COO^− where R^1 is alkyl or hydroxyl alkyl group with C1 to C4. The amphoterics disclosed there mainly functioned as a co-surfactant to solubilize a ether carboxylate in to concentrated glyphosate systems. In the context of the document, there was no mention of bioefficacy of betaines or other amphoteric surfactants by themselves. […] However, without proper testing of individual surfactant, it is not possible to determine whether the effect seen in the mixture of three surfactants comes from the claimed surfactant or the other two surfactants. Moreover, no actual bioefficacy data and especially no data are provided on the degree of “overall kill” provided in the absence of surfactants and in the presence of surfactants; without such data it is not possible to determine whether or not the claimed alkyl amido betaine was effective in enhancing herbicidal activity of glyphosate under the conditions of the test reported. This patent requires Na ion to be <0.035% for the glyphosate formulation to be stable. Moreover, it used only IPA-glyphosate as examples. […]

[3] = system: wheat; test: Example 5 trial of glyphosate formulations on wheat; assay type: in vivo; details: rate of 168 g ae/ha; glyphosate to surfactant ratio 3:1; 21DAT
From the text: FIG. 13 is a photo of wheat taken at 21 days after treatment with glyphosate alone, glyphosate with tallowamine-15EO, glyphosate with cocoamine-6EO betaine, and no glyphosate.
Cocoamine-6EO betaine was compared in the same trial with tallowamine-15EO as the positive control and the surfactant-free sample as negative control in glyphosate formulations. Glyphosate to surfactant ratio was 3:1.
This can be seen from the picture at FIG. 13, taken at 21DAT.

[4] = system: morning glory (IPOHE, a broad leaf week); test: Green house % Control of glyphosate samples with various surfactants (Example 1), morning glory; assay type: in vivo; details: MG
From the text: (§1) Four glyphosate samples with various surfactants were sprayed on morning glory (IPOHE, a broad leaf week) and wheat (TRIAV, a narrow leaf grass) in a green house setting. The surfactants are designated in Table 1.
(§2) The glyphosate rates of the spray solutions were 186, 372, and 743 g ae/ha (gram acid equivalent per hectare). […] Higher ratio means lower surfactant concentration. A ratio of 6.7 means the sample, at the same glyphosate concentration, has 2.2 times less surfactant than a sample with a ratio of 3.
(§3) Sample D served as a negative control, since it contained only glyphosate without added surfactant. Sample C served as a positive control since it is well known that tallowamine-15EO is an excellent surfactant to enhance glyphosate efficacy.
(§4) % Control ratings were conducted by an experienced person at 7, 14, 21, and 29 days after treatment (DAT). Digital pictures were also taken at the time of rating. Each % Control value was an average of 4 replicas.

[5] = system: wheat (TRIAV, a narrow leaf grass); test: Green house % Control of glyphosate samples with various surfactants (Example 1), wheat; assay type: in vivo; details: WT
From the text: as §1, §2, §3, §4

[6] = system: morning glory (IPOHE) and wheat (TRIAV); test: Example 1 green house trial, overall statement on adjuvancy; assay type: in vivo; details: glyphosate:surfactant ratio 6.7
From the text: as §1, §2, §4

[7] = system: morning glory and wheat; test: Example 3 green house trial, % Control of glyphosate formulations; assay type: in vivo; details: 930, 465 and 233 g ae/ha; 28 DAT; compared with glyphosate formulation without surfactant
From the text: FIG. 9 is a bar graph illustrating the % control results of applying glyphosate formulation containing oleylamphopolycarboxy glycinate, glyphosate formulation containing tallowamine-10EO, and glyphosate alone, each at 233 g ae/ha, 465 g ae/ha, and 930 g ae/ha to morning glory at 28 days after treatment.
FIG. 10 is a bar graph illustrating the % control results of applying glyphosate formulation containing oleylamphopolycarboxy glycinate, glyphosate formulation containing tallowamine-10EO, and glyphosate alone, each at 233 g ae/ha, 465 g ae/ha, and 930 g ae/ha to wheat at 28 days after treatment.
Glyphosate formulation containing oleylamphopolycarboxy glycinate (Na salt) was compared in a green house trial with glyphosate formulation containing tallowamine-10EO (as positive control) and glyphosate alone in terms of % Control. Three glyphosate rates were used, 930 g ae/ha, 465 gae/ha, and 233 g ae/ha.
The results are plotted in FIGS. 9-10.

tallow diamine trimethyl di-betaine
enhancement of glyphosate bioefficacy [1]: enhanced glyphosate bioefficacy even at very low rate

coco dimethylamidopropyl betaine
amount of surfactant that could be dissolved ([2]; in a composition of 360 g ae/l potassium glyphosate): < 80 g/L

Ethoxylated cocoamine (6EO) betaine [cocoamine-6EO betaine]
control to wheat [3]: excellent control

CC(C)N.O=C(O)CNCP(=O)(O)O [Sample D, Glyphosate (isopropylamine salt)]
% Control 7DAT ([4]; Glyph rate 186 g ae/h, average of 4 replicas): 55% | % Control 14 DAT ([4]; Glyph rate 186 g ae/h): 68% | % Control 21DAT ([4]; Glyph rate 186 g ae/h): 79% | % Control 29DAT ([4]; Glyph rate 186 g ae/h): 68% | % Control 7DAT ([4]; Glyph rate 372 g ae/h): 86% | % Control 14 DAT ([4]; Glyph rate 372 g ae/h): 89% | % Control 21DAT ([4]; Glyph rate 372 g ae/h): 95% | % Control 29DAT ([4]; Glyph rate 372 g ae/h): 93% | % Control 7DAT ([4]; Glyph rate 743 g ae/h): 83% | % Control 14 DAT ([4]; Glyph rate 743 g ae/h): 90% | % Control 21DAT ([4]; Glyph rate 743 g ae/h): 94% | % Control 29DAT ([4]; Glyph rate 743 g ae/h): 91% | % Control 7DAT ([5]; Glyph rate 186 g ae/h): 28% | % Control 14 DAT ([5]; Glyph rate 186 g ae/h): 60% | % Control 21DAT ([5]; Glyph rate 186 g ae/h): 80% | % Control 29DAT ([5]; Glyph rate 186 g ae/h): 58% | % Control 7DAT ([5]; Glyph rate 372 g ae/h): 58% | % Control 14 DAT ([5]; Glyph rate 372 g ae/h): 85% | % Control 21DAT ([5]; Glyph rate 372 g ae/h): 89% | % Control 29DAT ([5]; Glyph rate 372 g ae/h): 89% | % Control 7DAT ([5]; Glyph rate 743 g ae/h): 84% | % Control 14 DAT ([5]; Glyph rate 743 g ae/h): 94% | % Control 21DAT ([5]; Glyph rate 743 g ae/h): 98% | % Control 29DAT ([5]; Glyph rate 743 g ae/h): 98%

tallowamine-15EO
control to wheat [3]: excellent control

Cocodiamine trimethyl betaines
speed of glyphosate activity [6]: speeded up glyphosate activity | adjuvancy for glyphosate ([6]; 186, 372, 743 g ae/ha): good adjuvancy for glyphosate even at very low use rate

CCCCCCCCCCCCCCCCCC(=O)NCCC[N+](C)(C)CC(=O)[O-] [stearyl dimethylamidopropyl betaine]
amount of surfactant that could be dissolved ([2]; in a composition of 51.3% potassium glyphosate (aqueous)): < 1.8%

O=C(O)CNCP(=O)(O)O [glyphosate sample without surfactant, glyphosate]
control to wheat [3]: did not give much control

oleylamphopolycarboxy glycinate (Na salt)
enhancement of glyphosate efficacy [7]: enhanced glyphosate efficacy
